# Test results taken from paper PMC3912631, “Bench to Bed Evidences for Pharmacokinetic and Pharmacodynamic Interactions Involving Oseltamivir and Chinese Medicine” (Evidence-based Complementary and Alternative Medicine : eCAM, 2014).
# What was measured:
# [1] = Rat pharmacokinetics of OA and OC in plasma and urine after oral OA alone or with CMF1; type: in vivo, Sprague-Dawley rats; settings: in vivo, po, 30 mg/kg
# Method: The study was approved by the Animal Ethics Committee of The Chinese University of Hong Kong. Male Sprague-Dawley rats (230–250 g) were utilized and supplied by the Laboratory Animal Service Center at The Chinese University of Hong Kong. The rats were housed under standard conditions of temperature, humidity, and light and randomly divided into six groups with 10–12 rats in each group. […] The dose of 1.95 g/kg CMF1 is calculated based on the human dose recommended by the Chinese physicians and a doubled dose of CMF1 at […] is also used in the current study due to the potential large dosing range for Chinese medicine adopted in the practice. […]
# For dosing, OA (4 mg/mL) was freshly prepared by dissolving it in water and orally given to rats by gavage, bid (twice daily) for 4 days (9:00am and 6:00pm for each day), and CMF1 was also freshly suspended in water and then orally given to rats 2 h later of OA dosing (11:00 am and 8:00 pm for each day).
# For Groups of 1 to 3, a surgery for jugular vein cannulation was performed 1 h after CMF1 second dosing on day 4. A polyethylene catheter (0.50 mm ID, 1.00 mm OD, Portex Limited, Hythe, Kent, England) was cannulated into the right jugular vein under anesthesia. After surgery, the rat was placed in separated metabolic cage and allowed to recover and fasted overnight with free access to water. In the morning of day 5, blood samples (0.2 mL each) of the rats in the Groups 1–3 were collected via the catheter at 0, 15, 30, 60, 90, 120, 180, 240, 360, and 480 min after dosing of OA. After which, 0.2 mL of normal saline containing 20 units/mL of heparin was then injected into the catheter to flush the catheter. The collected blood samples were immediately placed in heparinized tubes containing dichlorvos (5 μL of 8 mg/mL dichlorvos in normal saline) for inhibition of carboxylesterase, followed by centrifugation to obtain the plasma and stored at −80°C. Urine samples were collected over 8 h postdose and combined with water used for rinsing the metabolic cage, further diluted to 200 mL, and then stored at −80°C until assay.
# The rat/human plasma and urine samples were treated and analyzed by an LC/MS/MS system as previously described. Briefly, 200 μL plasma/urine samples was mixed with cephalexin hydrate (internal standard, IS) working solution (final 2 μg/mL) and acidified with 1 mL of 10% perchloric acid in water (if necessary, dilution with blank human urine was required for urine samples). After mixing and centrifugation, the supernatant was loaded in prewashed Oasis MCX cartridge (1 cc, 30 mg, Waters) and the cartridge was rinsed subsequently with 1% formic acid, water, and methanol followed by vacuum dried for 20 min. The analytes were then eluted with 1 mL of 1% ammonia in methanol. The eluting solvent was dried by a vacuum concentrator and the residue was reconstituted with 200 μL of 0.1% formic acid : methanol (1 : 1 v/v) prior to HPLC/MS/MS analysis using an ABI 2000 Q-Trap triple quadrupole mass spectrometer (Applied Biosystems) coupled with PE-200 series micropumps and autosampler (Perkin-Elmer). The chromatographic separation was achieved by using a Nova-Pak CN HP column (75 × 3.9 mm i.d., 4 μm particle size, Waters) and the HPLC solvent system consisted of methanol (A) and 0.1% formic acid in water (B), with 50% A (for plasma samples) or 60% A (for urine samples) at 1 mL/min. The temperatures of autosampler and the analytical column were set at 4°C and ambient, respectively, and the sample injection volume was 20 μL. Prior to the mass spectrometric system, 60% of the LC eluent was split off and only 40% of the eluent was introduced into the ESI source.
# The plasma/urine OA and OC concentrations versus time profiles were analyzed using WinNonlin software standard edition version 2.1 (Pharsight Corporation). […] In human study, trough concentration (C trough) was defined as the minimum concentration obtained and was obtained at 12 h post-dose. […]
# [2] = Human crossover pharmacokinetic interaction study of WM (Tamiflu) alone or with CMF1; type: in vivo, human (Chinese male healthy volunteers); settings: for AUC(0-t): AUC0–12 h; for Cmax: C max
# Method: Normal healthy Chinese male subjects aged 20–45 years were recruited in this study. […] The study was conducted using a single-center, randomized, open-labeled, multiple dose (5 days), two-treatment, two-period, two-sequence crossover design. […] Each subject underwent two treatment sessions (periods I and II), and each session consists of 5-day treatment (twice daily for day 1 to day 4, morning dose for day 5). The two treatment sessions were separated by a washout period of 2 weeks. 250 mL water was used for WM (Tamiflu capsule, 75 mg per dose) administration. […] Drinking water was not allowed from 1 h predose to 1 h postdose except that needed for drug dosing. […] All blood and urine collection was taken on day 5 of each treatment session. […] Blood samples were collected from a catheter, which was placed in the forearm vein before dosing. At the specified time, 5 mL of blood was drawn (except for 0 time and at 2 h which was 10 mL each for additional antiviral activity determination) and stored in vacuette lithium heparin tubes (Greiner Bio-One). […] Plasma samples were collected after centrifugation and then stored at −80°C until assay. Urine was also collected (and the volume was recorded) at pre-dose, 0–4, 4–8, and 8–12 h intervals. […] After mixing and centrifugation, the supernatant was loaded in prewashed Oasis MCX cartridge (1 cc, 30 mg, Waters) and the cartridge was rinsed subsequently with 1% formic acid, water, and methanol followed by vacuum dried for 20 min. The analytes were then eluted with 1 mL of 1% ammonia in methanol. The eluting solvent was dried by a vacuum concentrator and the residue was reconstituted with 200 μL of 0.1% formic acid : methanol (1 : 1 v/v) prior to HPLC/MS/MS analysis using an ABI 2000 Q-Trap triple quadrupole mass spectrometer (Applied Biosystems) coupled with PE-200 series micropumps and autosampler (Perkin-Elmer). […] In human study, trough concentration (C trough) was defined as the minimum concentration obtained and was obtained at 12 h post-dose. […] In human studies, the comparison of WM + CMF1 to WM alone treatments was evaluated using a 90% confidence intervals (90% CI) approach (USFDA guideline, Drug Interactions Studies, September 2006). […] The statistical model included terms describing the effects attributable to sequence, subject (nested in sequence), period, and treatment (formulation). […] Difference in the median T max between both treatments was evaluated using Wilcoxon signed-rank test. For comparison of the human antiviral activities, one-way analysis of variance in conjunction with post hoc Turkey's range test was performed.
# [3] = male, human, in vivo, geometric mean
smiles,measurement,setting,value
"CCOC(=O)C1=C[C@@H](OC(CC)CC)[C@H](NC(C)=O)[C@@H](N)C1 [OA, Oseltamivir]",AUC0–8 h,[1],199.85 ± 56.88 μg∗min/mL
same,AUC0–inf,[1],209.14 ± 60.23 μg∗min/mL
same,"V d, λz/F",[1],23.39 ± 8.17 (L/k)g
same,Cmax,"[1]; male, Sprague-Dawley, C max",1160 ± 300 ng/mL
same,CL renal,"[1]; male, Sprague-Dawley, CL renal",6.1 ± 1.32 mL/min
same,CL/F,"[1]; male, Sprague-Dawley, CL/F",158 ± 59.6 mL/min/kg
same,Tmax,"[1]; male, Sprague-Dawley, T max",0.55 h
same,half-life,"[1]; male, Sprague-Dawley, t 1/2, λz",1.72 ± 0.146 h
same,C max,"[2]; human, day 5, WM + CMF1, n = 14, arithmetic mean ± SD",51.3 ± 17.4 ng/mL
same,tolerability,[2]; in vivo,well tolerated
same,12 h Cum. amt. in urine,"[2]; male, human, in vivo",2883 ± 985 µg
same,"12 h Cum. amt. in urine, geometric mean","[2]; male, human, in vivo",2745.53 µg
same,C max for WM + CMF1 treatment lower than that from WM alone,"[2]; male, human, in vivo",21.81%
same,"C max when OA was co-administered with CMF1, relative to WM alone","[2]; male, human, in vivo",~ 78%
same,time to reach peak maximum in plasma,"[2]; male, human, in vivo",0.5 to 1 h
same,AUC(0-t),"[2]; male, human, in vivo",134 ± 41.1 ng·h/mL
same,AUC(0-t),[2]; [3],130 ng·h/mL
same,Cmax,"[2]; male, human, in vivo",67.9 ± 27.1 ng/mL
same,Cmax,[2]; [3],62.4 ng/mL
same,CL renal,"[2]; male, human, in vivo, Renal clearance",368 mL/min
same,half-life,"[2]; male, human, in vivo, T 1/2 (terminal half-life)",1.98 ± 0.4 h
same,Tmax,"[2]; male, human, in vivo, T max",0.61 ± 0.21 h
same,CL renal,"[2]; male, human, in vivo, renal clearance",~367 mL/min
